Earlier results in patent US20230111210A1, “COCRYSTAL ANTIOXIDANTS OF PROTOCATECHUIC ACID WITH L-THEANINE FOR THE TREATMENT OF OXIDATIVE STRESS AND INFLAMMATORY CONDITIONS” (priority 2020, published 2023).
Values after ≈ are worked out from the molar mass of the structure shown.

What was measured:
[1] = system: AMPA (α-amino-3-hydroxy-5-methyl-4-isoxazolepropionic acid) receptors
[2] = not given; remark: listed apart in the source
[3] = system: NMDA (N-methyl-D-Aspartate) receptors
rats = conditions: rat, in vivo
rabbits = conditions: rabbit, in vivo

| Compound | pKa | affinity for AMPA receptors [1] | solubility in water (in words) [2] | affinity for NMDA receptors [3] | affinity for Kainate receptors (Kainate receptors) | LD50 (rats) | oral LD50 (rabbits) | solubility in water [2] [mg/mL] |
| --- | --- | --- | --- | --- | --- | --- | --- | --- |
| CCNC(=O)CC[C@H](N)C(=O)O [L-theanine, N-ethyl-L-glutamine] | 2.35 | micromolar affinities | soluble in water | micromolar affinities | micromolar affinities | greater than 5000 mg/kg | – | – |
| O=C(O)c1ccc(O)c(O)c1 [Protocatechuic acid, 3,4-dihydroxybenzoic acid] | 4.26 | – | – | – | – | – | greater than 3000 mg/kg | 18.2 (≈ 118 mM) |
